Results taken from ChEMBL document CHEMBL1145598, “Discovery and preclinical studies of 5-isopropyl-6-(5-methyl-1,3,4-oxadiazol-2-yl)-N-(2-methyl-1H-pyrrolo[2,3-b]pyridin-5-yl)pyrrolo[2,1-f][1,2,4]triazin-4-amine (BMS-645737), an in vivo active potent VEGFR-2 inhibitor” (Bioorg Med Chem Lett, 2008).
pIC50: −log10 of the molar value. ≈ marks a conversion by molar mass, not a printed value.

Columns and labels:
[1] = AUC in mouse at 50 mg/kg, po after 4 hrs; assay type: ADME, organism-based; design: time < 4 hr, dose 50 mg/kg, route oral; conditions: plasma
[2] = molecular target: Cytochrome P450 3A4 (Homo sapiens, UniProt P08684); experiment: Inhibition of CYP3A4; assay type: ADME
Cytochrome P450 3A4, sequence (P08684 whole entry): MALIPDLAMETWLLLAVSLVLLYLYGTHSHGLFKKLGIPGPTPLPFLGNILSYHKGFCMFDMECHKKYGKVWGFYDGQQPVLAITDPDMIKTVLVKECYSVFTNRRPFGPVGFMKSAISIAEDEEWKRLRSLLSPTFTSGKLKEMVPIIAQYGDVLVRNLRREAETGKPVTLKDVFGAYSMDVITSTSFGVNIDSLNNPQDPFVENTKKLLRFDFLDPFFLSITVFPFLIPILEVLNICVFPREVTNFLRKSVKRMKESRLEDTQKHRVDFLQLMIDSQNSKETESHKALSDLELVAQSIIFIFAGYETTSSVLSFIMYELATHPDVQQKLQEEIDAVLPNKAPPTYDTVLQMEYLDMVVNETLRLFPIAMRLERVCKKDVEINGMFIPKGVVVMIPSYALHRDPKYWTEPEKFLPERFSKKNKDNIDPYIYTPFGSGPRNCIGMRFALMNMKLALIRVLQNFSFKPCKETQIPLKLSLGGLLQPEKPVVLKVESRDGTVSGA

[3] = Total AUC in BALB/c mouse at 30 mg/kg, po; assay type: ADME, organism-based; design: time AUCmax, dose 30 mg/kg, route oral; conditions: in vivo
[4] = Total AUC in BALB/c mouse at 5 mg/kg, iv; assay type: ADME, organism-based; design: time AUCmax, dose 5 mg/kg, route intravenous; conditions: in vivo
[5] = Half life in BALB/c mouse at 5 mg/kg, iv; assay type: ADME, organism-based; design: dose 5 mg/kg, route intravenous; conditions: in vivo
[6] = Mean resident time in BALB/c mouse at 5 mg/kg, iv; assay type: ADME, organism-based; design: dose 5 mg/kg, route intravenous; conditions: in vivo
[7] = Clearance in BALB/c mouse at 5 mg/kg, iv; assay type: ADME, organism-based; design: dose 5 mg/kg, route intravenous; conditions: in vivo
[8] = Volume of distribution at steady state in BALB/c mouse at 5 mg/kg, iv; assay type: ADME, organism-based; design: dose 5 mg/kg, route intravenous; conditions: in vivo, read-out: Vdss
[9] = Oral bioavailability in BALB/c mouse at 30 mg/kg; conditions: in vivo
[10] = Half life in BALB/c mouse at 30 mg/kg, po; assay type: ADME, organism-based; design: dose 30 mg/kg, route oral; conditions: in vivo
[11] = molecular target: Protein kinase C alpha type (Homo sapiens, UniProt P17252); experiment: Inhibition of PKCalpha
[12] = molecular target: hERG (KCNH2) (Homo sapiens, UniProt Q12809); experiment: Inhibition of human ERG at 10 uM by patch clamp method
[13] = molecular target: T1, Tyrosine-protein kinase JAK3 (Homo sapiens, UniProt P52333); experiment: Inhibition of JAK3
T1 sequence (P52333 whole entry): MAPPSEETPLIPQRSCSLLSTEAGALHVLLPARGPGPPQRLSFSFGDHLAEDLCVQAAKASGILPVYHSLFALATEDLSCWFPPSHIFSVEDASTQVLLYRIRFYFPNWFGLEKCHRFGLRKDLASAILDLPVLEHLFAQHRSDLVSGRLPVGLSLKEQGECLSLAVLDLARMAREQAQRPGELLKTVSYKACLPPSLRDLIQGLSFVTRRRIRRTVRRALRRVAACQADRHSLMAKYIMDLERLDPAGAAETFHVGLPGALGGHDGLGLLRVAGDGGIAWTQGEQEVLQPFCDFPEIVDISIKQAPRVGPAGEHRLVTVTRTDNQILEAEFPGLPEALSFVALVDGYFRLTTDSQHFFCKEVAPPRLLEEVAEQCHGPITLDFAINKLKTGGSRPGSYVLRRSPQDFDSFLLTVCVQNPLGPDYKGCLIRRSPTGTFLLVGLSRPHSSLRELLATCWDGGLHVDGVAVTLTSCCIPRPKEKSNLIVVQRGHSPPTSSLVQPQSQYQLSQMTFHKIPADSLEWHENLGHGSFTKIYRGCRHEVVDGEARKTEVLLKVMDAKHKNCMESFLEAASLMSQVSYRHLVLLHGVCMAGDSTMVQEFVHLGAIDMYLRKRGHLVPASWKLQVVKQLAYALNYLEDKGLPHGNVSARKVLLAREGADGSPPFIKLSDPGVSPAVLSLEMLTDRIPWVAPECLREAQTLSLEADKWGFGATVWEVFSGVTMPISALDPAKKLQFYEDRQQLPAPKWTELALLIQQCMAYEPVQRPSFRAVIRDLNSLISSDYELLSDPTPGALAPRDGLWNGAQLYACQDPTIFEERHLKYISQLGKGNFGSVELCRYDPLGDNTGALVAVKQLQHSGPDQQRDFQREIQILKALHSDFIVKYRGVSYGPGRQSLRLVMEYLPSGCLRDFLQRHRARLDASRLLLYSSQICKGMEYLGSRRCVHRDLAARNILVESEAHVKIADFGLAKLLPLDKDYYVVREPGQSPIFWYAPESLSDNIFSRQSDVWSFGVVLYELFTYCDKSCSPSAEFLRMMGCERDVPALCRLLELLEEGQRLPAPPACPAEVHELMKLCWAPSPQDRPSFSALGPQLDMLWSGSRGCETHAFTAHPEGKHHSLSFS

[14] = molecular target: Epidermal growth factor receptor (Homo sapiens, UniProt P00533); experiment: Inhibition of EGFR
Epidermal growth factor receptor, sequence (P00533 whole entry): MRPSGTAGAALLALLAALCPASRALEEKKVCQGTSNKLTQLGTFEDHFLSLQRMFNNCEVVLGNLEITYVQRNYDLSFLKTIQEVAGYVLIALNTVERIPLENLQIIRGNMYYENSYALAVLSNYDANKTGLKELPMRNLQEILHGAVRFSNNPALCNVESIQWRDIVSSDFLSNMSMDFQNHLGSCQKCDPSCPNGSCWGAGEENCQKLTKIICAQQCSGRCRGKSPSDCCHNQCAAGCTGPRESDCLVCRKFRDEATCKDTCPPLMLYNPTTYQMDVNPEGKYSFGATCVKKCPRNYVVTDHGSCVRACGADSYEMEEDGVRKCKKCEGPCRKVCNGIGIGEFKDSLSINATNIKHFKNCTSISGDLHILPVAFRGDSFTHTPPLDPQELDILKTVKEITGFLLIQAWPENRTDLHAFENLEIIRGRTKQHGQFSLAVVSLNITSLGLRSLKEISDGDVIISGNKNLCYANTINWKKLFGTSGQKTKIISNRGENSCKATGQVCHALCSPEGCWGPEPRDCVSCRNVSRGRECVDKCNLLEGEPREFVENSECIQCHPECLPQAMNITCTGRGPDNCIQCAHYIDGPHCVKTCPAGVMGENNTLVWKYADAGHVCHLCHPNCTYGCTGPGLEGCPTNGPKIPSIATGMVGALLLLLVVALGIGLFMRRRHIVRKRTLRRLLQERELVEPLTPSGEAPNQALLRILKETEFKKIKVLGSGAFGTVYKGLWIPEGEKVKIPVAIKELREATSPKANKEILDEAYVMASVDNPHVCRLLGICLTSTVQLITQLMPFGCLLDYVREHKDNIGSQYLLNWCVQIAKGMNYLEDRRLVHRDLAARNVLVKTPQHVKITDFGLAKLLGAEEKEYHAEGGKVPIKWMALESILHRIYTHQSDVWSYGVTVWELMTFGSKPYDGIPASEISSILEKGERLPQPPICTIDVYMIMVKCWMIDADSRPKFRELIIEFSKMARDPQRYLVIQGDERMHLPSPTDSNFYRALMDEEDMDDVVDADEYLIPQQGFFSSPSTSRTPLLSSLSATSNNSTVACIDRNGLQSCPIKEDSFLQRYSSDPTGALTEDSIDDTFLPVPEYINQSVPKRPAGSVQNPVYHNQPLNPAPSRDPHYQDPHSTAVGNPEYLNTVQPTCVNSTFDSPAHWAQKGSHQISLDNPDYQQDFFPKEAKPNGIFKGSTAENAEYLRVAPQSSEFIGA

[15] = molecular target: Platelet-derived growth factor receptor beta (Homo sapiens, UniProt P09619); experiment: Inhibition of PDGFRbeta
[16] = molecular target: Tyrosine-protein kinase Lck (Homo sapiens, UniProt P06239); experiment: Inhibition of LCK
[17] = molecular target: Vascular endothelial growth factor receptor 2 (Homo sapiens, UniProt P35968)
Vascular endothelial growth factor receptor 2 (Homo sapiens, UniProt P35968), sequence (P35968 whole entry): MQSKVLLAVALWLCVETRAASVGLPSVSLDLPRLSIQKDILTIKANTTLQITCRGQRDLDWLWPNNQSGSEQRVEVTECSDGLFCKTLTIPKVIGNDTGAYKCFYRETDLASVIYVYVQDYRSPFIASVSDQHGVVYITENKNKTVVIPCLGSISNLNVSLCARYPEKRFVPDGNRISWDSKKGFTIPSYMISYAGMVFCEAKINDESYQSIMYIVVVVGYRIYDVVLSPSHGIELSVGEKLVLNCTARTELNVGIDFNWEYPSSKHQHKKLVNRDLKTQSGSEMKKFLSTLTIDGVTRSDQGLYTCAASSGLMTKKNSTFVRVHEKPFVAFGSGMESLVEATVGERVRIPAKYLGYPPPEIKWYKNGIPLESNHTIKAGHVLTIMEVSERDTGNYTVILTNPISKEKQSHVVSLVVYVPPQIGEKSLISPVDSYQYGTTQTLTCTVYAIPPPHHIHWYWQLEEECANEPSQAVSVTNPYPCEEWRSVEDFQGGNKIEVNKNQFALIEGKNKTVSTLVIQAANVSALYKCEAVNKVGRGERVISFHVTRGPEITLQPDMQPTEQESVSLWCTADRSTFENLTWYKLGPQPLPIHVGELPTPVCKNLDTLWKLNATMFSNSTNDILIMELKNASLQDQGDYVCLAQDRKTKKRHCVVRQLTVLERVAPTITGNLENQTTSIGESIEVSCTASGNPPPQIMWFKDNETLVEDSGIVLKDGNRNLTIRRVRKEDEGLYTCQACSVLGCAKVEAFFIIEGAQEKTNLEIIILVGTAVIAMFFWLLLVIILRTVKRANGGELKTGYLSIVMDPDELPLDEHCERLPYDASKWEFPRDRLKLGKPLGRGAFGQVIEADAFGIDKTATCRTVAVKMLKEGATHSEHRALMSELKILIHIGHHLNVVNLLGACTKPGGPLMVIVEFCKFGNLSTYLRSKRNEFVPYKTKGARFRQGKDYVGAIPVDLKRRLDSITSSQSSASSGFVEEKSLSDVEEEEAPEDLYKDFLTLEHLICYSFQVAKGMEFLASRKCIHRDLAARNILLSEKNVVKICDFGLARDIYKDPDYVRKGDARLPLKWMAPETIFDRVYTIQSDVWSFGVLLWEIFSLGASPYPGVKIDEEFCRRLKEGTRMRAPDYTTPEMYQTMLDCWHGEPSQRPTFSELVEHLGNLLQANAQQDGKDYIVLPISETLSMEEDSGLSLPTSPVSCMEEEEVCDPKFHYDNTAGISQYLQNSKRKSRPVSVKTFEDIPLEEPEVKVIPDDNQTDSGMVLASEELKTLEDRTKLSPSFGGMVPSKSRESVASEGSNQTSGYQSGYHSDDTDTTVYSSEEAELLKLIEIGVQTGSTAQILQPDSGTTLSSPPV
Description: Inhibition of human VEGFR2

[18] = molecular target: Receptor tyrosine-protein kinase erbB-2 (Homo sapiens, UniProt P04626); experiment: Inhibition of HER2
Receptor tyrosine-protein kinase erbB-2, sequence (P04626 whole entry): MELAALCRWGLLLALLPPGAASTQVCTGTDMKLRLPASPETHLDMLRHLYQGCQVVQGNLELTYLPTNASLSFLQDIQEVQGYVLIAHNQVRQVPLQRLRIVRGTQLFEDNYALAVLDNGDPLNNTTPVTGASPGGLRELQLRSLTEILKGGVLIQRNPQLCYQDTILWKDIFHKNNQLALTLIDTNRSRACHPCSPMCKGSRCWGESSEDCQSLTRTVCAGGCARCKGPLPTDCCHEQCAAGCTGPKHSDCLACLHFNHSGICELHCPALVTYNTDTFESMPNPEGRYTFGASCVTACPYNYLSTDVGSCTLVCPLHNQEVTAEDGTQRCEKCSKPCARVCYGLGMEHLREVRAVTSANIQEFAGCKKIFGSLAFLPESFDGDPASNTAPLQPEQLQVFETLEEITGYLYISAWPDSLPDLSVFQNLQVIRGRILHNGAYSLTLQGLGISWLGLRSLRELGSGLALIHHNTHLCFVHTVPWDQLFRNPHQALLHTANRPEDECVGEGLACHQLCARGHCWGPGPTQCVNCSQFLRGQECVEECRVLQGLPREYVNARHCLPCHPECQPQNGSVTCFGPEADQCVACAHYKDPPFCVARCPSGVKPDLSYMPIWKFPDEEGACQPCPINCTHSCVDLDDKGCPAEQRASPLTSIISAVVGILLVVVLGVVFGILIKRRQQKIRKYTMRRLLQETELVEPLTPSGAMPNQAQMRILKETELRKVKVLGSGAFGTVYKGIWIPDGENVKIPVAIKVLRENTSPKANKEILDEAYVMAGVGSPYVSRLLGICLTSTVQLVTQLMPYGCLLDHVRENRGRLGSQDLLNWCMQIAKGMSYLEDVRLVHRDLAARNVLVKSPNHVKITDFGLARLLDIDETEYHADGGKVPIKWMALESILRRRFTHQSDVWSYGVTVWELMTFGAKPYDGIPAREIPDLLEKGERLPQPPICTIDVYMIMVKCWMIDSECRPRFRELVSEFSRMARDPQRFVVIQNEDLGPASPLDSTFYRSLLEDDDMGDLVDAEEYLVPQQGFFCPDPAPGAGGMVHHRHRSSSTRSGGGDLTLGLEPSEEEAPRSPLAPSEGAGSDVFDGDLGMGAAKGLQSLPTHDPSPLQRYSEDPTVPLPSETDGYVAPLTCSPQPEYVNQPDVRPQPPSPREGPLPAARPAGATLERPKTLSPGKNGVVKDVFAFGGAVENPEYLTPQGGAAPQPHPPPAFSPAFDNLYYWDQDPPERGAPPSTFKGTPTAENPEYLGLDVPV

[19] = molecular target: Fibroblast growth factor receptor 1 (Homo sapiens, UniProt P11362); experiment: Inhibition of FGFR1
[20] = Tmax in BALB/c mouse at 30 mg/kg, po; conditions: in vivo
[21] = AUC in human L2987 cells xenografted mouse at 15 mg/kg, po after 24 hrs; assay type: ADME, organism-based; design: time < 24 hr, dose 15 mg/kg, route oral; conditions: in vivo
[22] = test system: Mus musculus; experiment: Toxicity in human L2987 cells xenografted mouse assessed as morbidity at 7.5 mg/kg, po; assay type: organism-based; design: dose 7.5 mg/kg, route oral; conditions: in vivo
[23] = test system: NCI-N87; experiment: Antitumor activity against human N87 cells; assay type: functional, cell-based
[24] = Antitumor activity against human H1993 cells; assay type: functional, cell-based; conditions: NCI-H1993
[25] = molecular target: Vascular endothelial growth factor receptor 2 (Mus musculus, UniProt P35918); experiment: Inhibition of mouse Flk1
[26] = test system: Rattus norvegicus; experiment: AUC in rat at 30 mg/kg; assay type: ADME, organism-based, Plasma; design: dose 30 mg/kg; conditions: in vivo
[27] = test system: L2987; experiment: Antitumor activity against human L2987 cells xenografted mouse at 7.5 mg/kg, po after 4 days; assay type: functional
[28] = Oral bioavailability in rat at 30 mg/kg; assay type: ADME, organism-based; conditions: in vivo
[29] = test system: Mus musculus; experiment: Toxicity in human L2987 cells xenografted mouse assessed as weight loss at 7.5 mg/kg, po; assay type: organism-based; design: dose 7.5 mg/kg, route oral; conditions: in vivo
[30] = Cmax in human L2987 cells xenografted mouse at 7.5 mg/kg, po after 24 hrs; assay type: ADME, organism-based; design: dose 7.5 mg/kg, route oral; conditions: in vivo
[31] = test system: Mus musculus; experiment: Toxicity in human L2987 cells xenografted mouse assessed as weight loss at 15 mg/kg, po; assay type: organism-based; design: dose 15 mg/kg, route oral; conditions: in vivo
[32] = Cmax in human L2987 cells xenografted mouse at 15 mg/kg, po after 24 hrs; assay type: ADME, organism-based; design: dose 15 mg/kg, route oral; conditions: in vivo
[33] = test system: HUVEC; experiment: Antiproliferative activity against VEGF-induced HUVEC; assay type: functional, cell-based; conditions: Homo sapiens
[34] = molecular target: Voltage-gated inwardly rectifying potassium channel KCNH2 (Homo sapiens, UniProt Q12809); experiment: Inhibition of human ERG by patch clamp method
[35] = test system: L2987; experiment: Antitumor activity against human L2987 cells xenografted mouse at 15 mg/kg, po after 4 days; assay type: functional
[36] = test system: Mus musculus; experiment: Toxicity in human L2987 cells xenografted mouse assessed as morbidity at 15 mg/kg, po; assay type: organism-based; design: dose 15 mg/kg, route oral; conditions: in vivo
[37] = Antitumor activity against human GTL16 cells; assay type: functional, cell-based; conditions: GTL 16
[38] = Aqueous solubility at pH 2; assay type: physicochemical; conditions: buffer
[39] = test system: L2987; experiment: Antitumor activity against po dosed human L2987 cells xenografted mouse after 24 hrs; assay type: functional
[40] = Aqueous solubility at pH 6.5; assay type: physicochemical; conditions: buffer
[41] = test system: L2987; experiment: Antitumor activity against human L2987 cells xenografted in mouse; assay type: functional, cell-based
[42] = molecular target: Vascular endothelial growth factor receptor 1 (Homo sapiens, UniProt P17948); experiment: Inhibition of VEGFR1
[43] = AUC in human L2987 cells xenografted mouse at 7.5 mg/kg, po after 24 hrs; assay type: ADME, organism-based; design: time < 24 hr, dose 7.5 mg/kg, route oral; conditions: in vivo
[44] = test system: HUVEC; experiment: Antiproliferative activity against bFGF-induced HUVEC; assay type: functional, cell-based; conditions: Homo sapiens

Cc1c(OC[C@@H](C)O)cn2ncnc(Oc3cnc4[nH]ccc4c3F)c12
AUC at 4 h [1]: 11.1 µM·h

Cc1cc2c(F)c(Oc3ncnn4cc(OC[C@@H](C)O)c(C)c34)cnc2[nH]1
AUC at 4 h [1]: 29.6 µM·h

Cc1cc2c(F)c(Oc3ncnn4cc(OC[C@@H](C)O)c(C)c34)ccc2[nH]1 [BRIVANIB]
AUC at 4 h [1]: 136 µM·h

CNc1nnc(-c2cn3ncnc(Nc4cnc5[nH]c(C)cc5c4)c3c2C(C)C)o1
pIC50 [2]: 5.19
AUC [3]: 272 µM·h
AUC [4]: 46 µM·h
half-life [5]: 2.8 h
MRT [6]: 4.3 h
clearance [7]: 0.27 L/h/kg
Vd [8]: 1.2 L/kg
bioavailability [9]: 99%
half-life [10]: 2.8 h

Cc1nnc(-c2cn3ncnc(Nc4cnc5[nH]ccc5c4)c3c2C(C)C)o1
pIC50 [2]: < 4.40
pIC50 [11]: < 4.30
inhibition at 10 µM [12]: 29%
pIC50 [13]: < 4.30
AUC [3]: 21.7 µM·h
AUC [4]: 12.4 µM·h
half-life [5]: 1.2 h
MRT [6]: 1.7 h
pIC50 [14]: 6.82
clearance [7]: 1.08 L/h/kg
pIC50 [15]: 6.41
pIC50 [16]: 6.73
pIC50 [17]: 7.51
Vd [8]: 1.9 L/kg
pIC50 [18]: 6.30
bioavailability [9]: 29%
half-life [10]: 4.5 h
pIC50 [19]: 7.21

Cc1cc2cc(Nc3ncnn4cc(-c5nnc(C)o5)c(C(C)C)c34)cnc2[nH]1
Tmax [20]: 0.5 h
AUC at 24 h [21]: 30 µM·h
Activity [22]: Non-toxic
pIC50 [2]: 4.94
pIC50 [11]: < 4.30
inhibition at 10 µM [12]: 64%
pIC50 [13]: < 4.30
pIC50 [23]: < 5.00
pIC50 [24]: < 5.00
pIC50 [25]: 7.28
AUC [26]: 287 µM·h
AUC [3]: 182 µM·h
Activity [27]: >=50%
AUC [4]: 25 µM·h
bioavailability [28]: 68%
half-life [5]: 2.9 h
Activity [29]: Non-toxic
MRT [6]: 2.7 h
pIC50 [14]: < 6.00
clearance [7]: 0.51 L/h/kg
Cmax [30]: 1.03 µM
Activity [31]: Non-toxic
pIC50 [15]: < 5.70
Cmax [32]: 2.64 µM
pIC50 [33]: 7.89
pIC50 [34]: 5.18
pIC50 [16]: < 5.70
Activity [35]: >=50%
pIC50 [17]: 7.60
Activity [36]: Non-toxic
Vd [8]: 1.4 L/kg
pIC50 [18]: < 5.30
bioavailability [9]: > 100%
pIC50 [37]: < 5.00
half-life [10]: 2.5 h
solubility [38]: 0.4 mg/mL (≈ 1030 µM)
Activity [39]: Dose-dependent effect
minimal effective dose ([39]; read-out: MED): 7.5 mg/kg
solubility [40]: 0.0028 mg/mL (≈ 7.21 µM)
pIC50 [41]: < 5.60
pIC50 [19]: 7.11
pIC50 [42]: 6.57
AUC at 24 h [43]: 11 µM·h
pIC50 [44]: 6.86
